{"source": "patent US20020111274A1", "about": "“1-alkyl-3-[1-(substituted phenyl) benzotriazol-6-yl] uracils” (BASF Aktiengesellschaft, priority 2000, published 2002)", "design_in_all_cases": "scale not given here", "key": {"CASOB Sicklepod": {"test_system": "CASOB Sicklepod", "test": "Postemergence herbicidal evaluation, CASOB", "type": "in vivo, Cassia obtusifolia, L.", "conditions": "postemergence spray, rated about two-three weeks after treatment", "how_it_was_run": "(§1)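 Visual injury rating ~2–3 wk post-spray; replicate tests averaged. Two-week-old seedlings; foliar spray at 40 psi; 0.006–0.400 kg ai/ha in 80/20 acetone/water + 1.0% methylated seed oil.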"}, "ABUTH Velvetleaf [1]": {"test_system": "ABUTH Velvetleaf", "test": "Postemergence herbicidal evaluation, ABUTH", "type": "in vivo, Abutilon theophrasti, Medic.", "conditions": "postemergence spray, rated about two-three weeks after treatment", "how_it_was_run": "as §1"}, "GLXMAW Soybean, Williams": {"test_system": "GLXMAW Soybean, Williams", "test": "Postemergence herbicidal evaluation, GLXMAW", "type": "in vivo, Glycine max, (L.) Merr. cv Williams", "conditions": "postemergence spray, rated about two-three weeks after treatment", "how_it_was_run": "as §1"}, "ZEAMX Corn, Field": {"test_system": "ZEAMX Corn, Field", "test": "Preemergence herbicidal evaluation, ZEAMX", "type": "in vivo, Zea mays, L. (Sammel-Bezeichnung)", "conditions": "preemergence", "how_it_was_run": "(§2)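 Seeds mixed with potting soil were planted on about one inch of soil in cups, then sprayed with the test compound in aqueous acetone at roughly 0.013 to 0.800 kg per hectare. Plants were kept under standard greenhouse care and injury was rated four to five weeks after treatment.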"}, "ECHOG Barnyardgrass [2]": {"test_system": "ECHOG Barnyardgrass", "test": "Preemergence herbicidal evaluation, ECHOG", "type": "in vivo, Echinochloa crus-galli, (L.) Beau", "conditions": "preemergence", "how_it_was_run": "as §2"}, "ABUTH Velvetleaf [3]": {"test_system": "ABUTH Velvetleaf", "test": "Preemergence herbicidal evaluation, ABUTH", "type": "in vivo, Abutilon theophrasti, Medic.", "conditions": "preemergence", "how_it_was_run": "as §2"}, "ECHOG Barnyardgrass [4]": {"test_system": "ECHOG Barnyardgrass", "test": "Postemergence herbicidal evaluation, ECHOG", "type": "in vivo, Echinochloa crus-galli, (L.) Beau", "conditions": "postemergence spray, rated about two-three weeks after treatment", "how_it_was_run": "as §1"}, "[5]": {"test_system": "TRZAWR Wheat, Winter, cv Riband", "test": "Postemergence herbicidal evaluation, TRZAWR", "type": "in vivo, Triticum aestivum", "conditions": "postemergence spray, rated about two-three weeks after treatment", "how_it_was_run": "as §1"}, "[6]": {"test_system": "IPOHE Morningglory, Ivyleaf", "test": "Postemergence herbicidal evaluation, IPOHE", "type": "in vivo, Ipomoea hederacea, (L.) Jacq.", "conditions": "postemergence spray, rated about two-three weeks after treatment", "how_it_was_run": "as §1"}, "SETVI Foxtail, Green": {"test_system": "SETVI Foxtail, Green", "test": "Postemergence herbicidal evaluation, SETVI", "type": "in vivo, Setaria viridis, (L.) Beau", "conditions": "postemergence spray, rated about two-three weeks after treatment", "how_it_was_run": "as §1"}, "ORYSAT Rice, Tebonnet": {"test_system": "ORYSAT Rice, Tebonnet", "test": "Postemergence herbicidal evaluation, ORYSAT", "type": "in vivo, Oryza sativa, (L.)", "conditions": "postemergence spray, rated about two-three weeks after treatment", "how_it_was_run": "as §1"}, "[7]": {"test_system": "CHEAL Lambsquarters, Common", "test": "Preemergence herbicidal evaluation, CHEAL", "type": "in vivo, Chenopodium album, L.", "conditions": "preemergence", "how_it_was_run": "as §2"}}}
{"smiles": "COc1ccc(C)cc1-n1nnc2cc(F)c(-n3c(=O)cc(C(F)(F)F)n(C)c3=O)cc21", "note": "[Example 18, 3-[5-fluoro-1-(2-methoxy-5-methylphenyl)-1H-1,2,3-benzotriazol-6-yl]-1-methyl-6-(trifluoromethyl)-2,4(1H,3H)-pyrimidinedione]", "values": [{"measurement": "Postemergence herbicidal rating CASOB", "setting": "CASOB Sicklepod; 0.008 kg/ha", "value": 0.0}, {"measurement": "Postemergence herbicidal rating CASOB", "setting": "CASOB Sicklepod; 0.016 kg/ha", "value": 7.0}, {"measurement": "Postemergence herbicidal rating CASOB", "setting": "CASOB Sicklepod; 0.032 kg/ha", "value": 6.0}, {"measurement": "Postemergence herbicidal rating CASOB", "setting": "CASOB Sicklepod; 0.062 kg/ha", "value": 7.0}, {"measurement": "Postemergence herbicidal rating ABUTH", "setting": "ABUTH Velvetleaf [1]; 0.008 kg/ha", "value": 9.0}, {"measurement": "Postemergence herbicidal rating ABUTH", "setting": "ABUTH Velvetleaf [1]; 0.016 kg/ha", "value": 9.0}, {"measurement": "Postemergence herbicidal rating ABUTH", "setting": "ABUTH Velvetleaf [1]; 0.032 kg/ha", "value": 9.0}, {"measurement": "Postemergence herbicidal rating ABUTH", "setting": "ABUTH Velvetleaf [1]; 0.062 kg/ha", "value": 9.0}, {"measurement": "Postemergence herbicidal rating GLXMAW", "setting": "GLXMAW Soybean, Williams; 0.008 kg/ha", "value": 4.5}, {"measurement": "Postemergence herbicidal rating GLXMAW", "setting": "GLXMAW Soybean, Williams; 0.016 kg/ha", "value": 4.5}, {"measurement": "Postemergence herbicidal rating GLXMAW", "setting": "GLXMAW Soybean, Williams; 0.032 kg/ha", "value": 6.5}, {"measurement": "Postemergence herbicidal rating GLXMAW", "setting": "GLXMAW Soybean, Williams; 0.062 kg/ha", "value": 6.0}, {"measurement": "ZEAMX herbicidal rating", "setting": "ZEAMX Corn, Field; rate 0.016 kg/ha", "value": 5.0}, {"measurement": "ZEAMX herbicidal rating", "setting": "ZEAMX Corn, Field; rate 0.032 kg/ha", "value": 5.0}, {"measurement": "ZEAMX herbicidal rating", "setting": "ZEAMX Corn, Field; rate 0.062 kg/ha", "value": 7.0}, {"measurement": "ZEAMX herbicidal rating", "setting": "ZEAMX Corn, Field; rate 0.125 kg/ha", "value": 8.5}, {"measurement": "ECHCG herbicidal rating", "setting": "ECHOG Barnyardgrass [2]; rate 0.016 kg/ha", "value": 6.0}, {"measurement": "ECHCG herbicidal rating", "setting": "ECHOG Barnyardgrass [2]; rate 0.032 kg/ha", "value": 8.0}, {"measurement": "ECHCG herbicidal rating", "setting": "ECHOG Barnyardgrass [2]; rate 0.062 kg/ha", "value": 9.0}, {"measurement": "ECHCG herbicidal rating", "setting": "ECHOG Barnyardgrass [2]; rate 0.125 kg/ha", "value": 9.0}, {"measurement": "ABUTH herbicidal rating", "setting": "ABUTH Velvetleaf [3]; rate 0.016 kg/ha", "value": 6.0}, {"measurement": "ABUTH herbicidal rating", "setting": "ABUTH Velvetleaf [3]; rate 0.032 kg/ha", "value": 9.0}, {"measurement": "ABUTH herbicidal rating", "setting": "ABUTH Velvetleaf [3]; rate 0.062 kg/ha", "value": 9.0}, {"measurement": "ABUTH herbicidal rating", "setting": "ABUTH Velvetleaf [3]; rate 0.125 kg/ha", "value": 9.0}, {"measurement": "Postemergence herbicidal rating ECHCG", "setting": "ECHOG Barnyardgrass [4]; 0.008 kg/ha", "value": 0.0}, {"measurement": "Postemergence herbicidal rating ECHCG", "setting": "ECHOG Barnyardgrass [4]; 0.016 kg/ha", "value": 2.0}, {"measurement": "Postemergence herbicidal rating ECHCG", "setting": "ECHOG Barnyardgrass [4]; 0.032 kg/ha", "value": 2.0}, {"measurement": "Postemergence herbicidal rating ECHCG", "setting": "ECHOG Barnyardgrass [4]; 0.062 kg/ha", "value": 4.0}, {"measurement": "Postemergence herbicidal rating TRZAWR", "setting": "[5]; 0.008 kg/ha", "value": 3.5}, {"measurement": "Postemergence herbicidal rating TRZAWR", "setting": "[5]; 0.016 kg/ha", "value": 4.5}, {"measurement": "Postemergence herbicidal rating TRZAWR", "setting": "[5]; 0.032 kg/ha", "value": 5.5}, {"measurement": "Postemergence herbicidal rating TRZAWR", "setting": "[5]; 0.062 kg/ha", "value": 4.5}, {"measurement": "Postemergence herbicidal rating IPOHE", "setting": "[6]; 0.008 kg/ha", "value": 9.0}, {"measurement": "Postemergence herbicidal rating IPOHE", "setting": "[6]; 0.016 kg/ha", "value": 9.0}, {"measurement": "Postemergence herbicidal rating IPOHE", "setting": "[6]; 0.032 kg/ha", "value": 9.0}, {"measurement": "Postemergence herbicidal rating IPOHE", "setting": "[6]; 0.062 kg/ha", "value": 9.0}, {"measurement": "Postemergence herbicidal rating SETVI", "setting": "SETVI Foxtail, Green; 0.008 kg/ha", "value": 0.0}, {"measurement": "Postemergence herbicidal rating SETVI", "setting": "SETVI Foxtail, Green; 0.016 kg/ha", "value": 5.0}, {"measurement": "Postemergence herbicidal rating SETVI", "setting": "SETVI Foxtail, Green; 0.032 kg/ha", "value": 9.0}, {"measurement": "Postemergence herbicidal rating SETVI", "setting": "SETVI Foxtail, Green; 0.062 kg/ha", "value": 9.0}, {"measurement": "Postemergence herbicidal rating ORYSAT", "setting": "ORYSAT Rice, Tebonnet; 0.008 kg/ha", "value": 3.5}, {"measurement": "Postemergence herbicidal rating ORYSAT", "setting": "ORYSAT Rice, Tebonnet; 0.016 kg/ha", "value": 4.0}, {"measurement": "Postemergence herbicidal rating ORYSAT", "setting": "ORYSAT Rice, Tebonnet; 0.032 kg/ha", "value": 5.5}, {"measurement": "Postemergence herbicidal rating ORYSAT", "setting": "ORYSAT Rice, Tebonnet; 0.062 kg/ha", "value": 5.5}, {"measurement": "CHEAL herbicidal rating", "setting": "[7]; rate 0.016 kg/ha", "value": 9.0}, {"measurement": "CHEAL herbicidal rating", "setting": "[7]; rate 0.032 kg/ha", "value": 9.0}, {"measurement": "CHEAL herbicidal rating", "setting": "[7]; rate 0.062 kg/ha", "value": 9.0}, {"measurement": "CHEAL herbicidal rating", "setting": "[7]; rate 0.125 kg/ha", "value": 9.0}]}
